Reference: patent US11572532B2, “Antimicrobial composition” (The Procter & Gamble Company, priority 2019, dated 2023)
Structures can show the parent of a compound that is named as a salt.

Columns and labels:
[1] = tested on: Enterobacter aerogenes; assay: Minimum Biocidal Concentration (MBC) in suspension; format: cell-based; details: active in 0.5% MEA + 1.5% TEA alkaline composition, no horse serum, contact time 6 minutes; for MBC: Klebsiella aerogenes, 0.1 h, read-out: MBC (ppm) E. aerogenes
Method: (§1) B) Antibacterial Efficacy (Minimum Biocidal Concentration in Suspension):
(§2) The antimicrobial efficacy of the antimicrobial agent in the composition is determined by measuring its Minimum Biocidal Concentration (MBC). The MBC is defined as the lowest absolute concentration of the particular antimicrobial active which provides complete kill (zero bacterial growth).
(§3) The antimicrobial agent was added to the composition at a level of 1000 ppm, or 500 ppm, or 200 ppm, or 100 ppm or 50 ppm, depending on what the Minimum Biocidal Concentration (MBC) is. 200 μL of the antimicrobial hard surface cleaning composition was dosed into one well of row A of a 96 well microtiter plate. Each subsequent well (rows B to G) were dosed with 100 μL of the same hard surface cleaning composition, without the addition of the antimicrobial agent. 100 μL of the antimicrobial hard surface cleaning composition was transferred from row A to row B and mixed. 100 μL of the composition was then transferred from row B to row C and mixed, and the process repeated to row G. As such, the concentration of the antimicrobial agent underwent two-fold dilution in adjacent wells, while the concentration of the other actives in the hard surface cleaning composition remained constant across all the wells in the same column.
(§4) 10 μL of the 10^8CFU/ml bacteria suspension in saline was added to wells A to F of the microtiter plate with row G kept as a nil bacteria control. The final volume in each well was 110 μL, except for row G which comprised 100 μL of the hard surface cleaning composition and no bacteria suspension. Bacterial inoculation to each column was staggered by 30 seconds to allow for equal incubation times in all wells so that the contact time between the bacteria and the antimicrobial active for all samples was 6 mins. After this contact time, 10 μL of each test solution was transferred to 90 μL of neutralizer solution (Modified Letheen Broth +1.5% Polysorbate 80, supplied by BioMérieux) to stop the antimicrobial action of the antimicrobial active matching the stagger of the inoculation. 2 μL of this solution was plated onto a TSA plate matching the stagger of the inoculation so that all samples are exposed to the neutralizer for the same period of time. The plate was incubated at 32.5° C. for 48 h. MBC concentration is taken as the lowest concentration of the antimicrobial active at which no visible colony growth is observed on the TSA plate.

[2] = tested on: Staphylococcus aureus (S.aureus—ATCC #6538); assay: Minimum Biocidal Concentration (MBC) in suspension; format: cell-based; details: active in 0.5% MEA + 1.5% TEA alkaline composition, no horse serum, contact time 6 minutes; for MBC: Staphylococcus aureus, ATCC6538, 0.1 h, read-out: MBC (ppm) S. aureus
Method: as §1, §2, §3, §4

[3] = pH measurement on the neat composition; format: physicochemical; details: composition of 0.5% MEA + 1.5% TEA with 50 ppm of the active; 25° C.
Method: The pH is measured on the neat composition, at 25° C., using a pH meter with compatible gel-filled pH probe (such as Sartarius PT-10P meter with Toledo probe part number 52 000 100), calibrated according to the instruction manual.

| Compound | MBC (ppm) E. aerogenes [1] [ppm] | MBC (ppm) S. aureus [2] [ppm] | pH [3] | MBC [1] [µg/mL] | MBC [2] [µg/mL] |
| --- | --- | --- | --- | --- | --- |
| N-alkyl dimethyl benzyl ammonium chloride | 12.5 | 12.5 | 11.4 |  |  |
| CCCCCCCCCCCCN(CCCN)CCCN [N-(3-Aminopropyl)-N-dodecylpropane-1,3-diamine] |  |  | 11.5 | 50 | 12.5 |
| CCCCCCCCN=c1ccn(CCCCCCCCCCn2ccc(=NCCCCCCCC)cc2)cc1 [Bispyridinium alkane, octenidine dihydrochloride] |  |  | 11.4 | 12.5 | 3.13 |
| [H]/N=C(\N/C(=N/[H])NCCCCCCNC(=N)NC(=N)Nc1ccc(Cl)cc1)Nc1ccc(Cl)cc1 [Chlorhexidine] |  |  | 11.2 | 50 | 50 |
